Data published in patent publication US20250282768A1 (Janssen Pharmaceutica NV, priority 2022, published 2025).

Tested on: p-IKKa levels in L363 (NIK translocated multiple myeloma) cells
Assay: Assay 2: Effect of compounds on p-IKKa levels in L363 (NIK translocated multiple myeloma) cells
Type: cell-based
Conditions: Homo sapiens, L-363, 6 h, read-out: Assay 2 IC50 (nM), p-IKKa (Ser 176/180) in BAFF stimulated L363 cells with MG132, 6 h; average if tested more than once
Outline: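 Read-out is p-IKKa Ser176/180 by AlphaLISA SureFire in lysates. Cells were BAFF-primed (250 ng/ml) overnight or left unstimulated, then exposed 6 h at 37 °C to compound with MG132 (10 μM), 0.3% DMSO. IC50 from sigmoidal curve fit, normalized between stimulated and unstimulated controls.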

Row | Structure (SMILES) | IC50 [nM]
1 | CN1CC[C@@](O)(c2cc(-c3cccc(-c4ccnc(N[C@H]5CCC[C@@H](O)C5)n4)n3)no2)C1=O [Example 450, (R)-3-Hydroxy-3-(3-(6-(2-(((1S,3R)-3-hydroxycyclohexyl)amino)pyrimidin-4-yl)pyridin-2-yl)isoxazol-5-yl)-1-methylpyrrolidin-2-one] | 50 to 500
2 | CN1CC[C@@](O)(c2cc(-c3cccc(-c4ccnc(NC5CCC(C(F)(F)F)CC5)n4)n3)no2)C1=O (stereo partly drawn) [Example 451, (R)-3-Hydroxy-1-methyl-3-(3-(6-(2-((4-(trifluoromethyl)cyclohexyl)amino)pyrimidin-4-yl)pyridin-2-yl)isoxazol-5-yl)pyrrolidin-2-one] | > 500
3 | CN1CC[C@@](O)(c2cc(-c3cccc(-c4ccnc(NC5CCOCC5)n4)n3)no2)C1=O [Example 452, (R)-3-Hydroxy-1-methyl-3-(3-(6-(2-((tetrahydro-2H-pyran-4-yl)amino)pyrimidin-4-yl)pyridin-2-yl)isoxazol-5-yl)pyrrolidin-2-one] | 50 to 500
4 | CN1CC[C@@](O)(c2cc(-c3cccc(-c4ccnc(NC5CCC5)n4)n3)no2)C1=O [Example 453, (R)-3-(3-(6-(2-(Cyclobutylamino)pyrimidin-4-yl)pyridin-2-yl)isoxazol-5-yl)-3-hydroxy-1-methylpyrrolidin-2-one] | 50 to 500
5 | CN1CC[C@@](O)(c2cc(-c3cccc(-c4ccnc(N[C@H]5CCCOC5)n4)n3)no2)C1=O [Example 454, (R)-3-Hydroxy-1-methyl-3-(3-(6-(2-(((S)-tetrahydro-2H-pyran-3-yl)amino)pyrimidin-4-yl)pyridin-2-yl)isoxaozl-5-yl)pyrrolidin-2-one] | 50 to 500
6 | CN1CC[C@@](O)(c2cc(-c3cccc(-c4ccnc(N[C@@H]5CCCOC5)n4)n3)no2)C1=O [Example 455, (R)-3-Hydroxy-1-methyl-3-(3-(6-(2-(((R)-tetrahydro-2H-pyran-3-yl)amino)pyrimidin-4-yl)pyridin-2-yl)isoxazol-5-yl)pyrrolidin-2-one] | > 500
7 | CN1CC[C@@](O)(c2cc(-c3cccc(-c4ccnc(N[C@@H]5CCOC5)n4)n3)no2)C1=O [Example 460, (R)-3-Hydroxy-1-methyl-3-(3-(6-(2-(((R)-tetrahydrofuran-3-yl)amino)pyrimidin-4-yl)pyridin-2-yl)isoxazol-5-yl)pyrrolidin-2-one] | 50 to 500
8 | CNC(=O)c1cc(Nc2nccc(-c3cccc(-c4cc([C@]5(O)CCN(C)C5=O)on4)n3)n2)nn1C(C)C [Example 464, (R)-3-((4-(6-(5-(3-Hydroxy-1-methyl-2-oxopyrrolidin-3-yl)isoxazol-3-yl)pyridin-2-yl)pyrimidin-2-yl)amino)-1-isopropyl-N-methyl-1H-pyrazole-5-carboxamide] | < 50
9 | CN1CC[C@@](O)(c2cc(-c3cccc(-c4ccnc(NCC5(O)CC5)n4)n3)no2)C1=O [Example 466, (R)-3-Hydroxy-3-(3-(6-(2-(((1-hydroxycyclopropyl)methyl)amino)pyrimidin-4-yl)pyridin-2-yl)isoxazol-5-yl)-1-mehtylpyrrolidin-2-one] | > 500
10 | CN1CCn2nc(Nc3nccc(-c4cccc(-c5cc([C@]6(O)CCN(C)C6=O)on5)n4)n3)cc2C1=O [Example 467, (R)-2-((4-(6-(5-(3-Hydroxy-1-methyl-2-oxopyrrolidin-3-yl)isoxazol-3-yl)pyridin-2-yl)pyrimidin-2-yl)amino)-5-methyl-6,7-dihydropyrazolo[1,5-a]pyrazin-4(5H)-one] | 50 to 500
11 | CN1CC[C@@](O)(c2cc(-c3cccc(-c4ccnc(Nc5cnc6c(c5)COCC6)n4)n3)no2)C1=O [Example 468, (R)-3-(3-(6-(2-((7,8-Dihydro-5H-pyrano[4,3-b]pyridin-3-yl)amino)pyrimidin-4-yl)pyridin-2-yl)isoxazol-5-yl)-3-hydroxy-1-methylpyrrolidin-2-one] | < 50
12 | COC1CCC(Nc2nccc(-c3cccc(-c4cc([C@]5(O)CCN(C)C5=O)on4)n3)n2)CC1 (stereo partly drawn) [Example 469, (R)-3-Hydroxy-3-(3-(6-(2-((4-methoxycyclohexyl)amino)pyrimidin-4-yl)pyridin-2-yl)isoxazol-5-yl)-1-methylpyrrolidin-2-one] | > 500
13 | CCS(=O)(=O)N1CCC(Nc2nccc(-c3cccc(-c4cc([C@]5(O)CCN(C)C5=O)on4)n3)n2)CC1 [Example 470, (R)-3-(3-(6-(2-((1-(Ethylsulfonyl)piperidin-4-yl)amino)pyrimidin-4-yl)pyridin-2-yl)isoxazol-5-yl)-3-hydroxy-1-methylpyrrolidin-2-one] | < 50
14 | Cc1ncc(C#N)cc1Nc1nccc(-c2cccc(-c3cc([C@]4(O)CCN(C)C4=O)on3)n2)n1 [Example 471, (R)-5-((4-(6-(5-(3-Hydroxy-1-methyl-2-oxopyrrolidin-3-yl)isoxazol-3-yl)pyridin-2-yl)pyrimidin-2-yl)amino)-6-methylnicotinonitrile] | < 50
15 | CNC(=O)c1cnc(C)c(Nc2nccc(-c3cccc(-c4cc([C@]5(O)CCN(C)C5=O)on4)n3)n2)c1 [Example 473, (R)-5-((4-(6-(5-(3-Hydroxy-1-methyl-2-oxopyrrolidin-3-yl)isoxazol-3-yl)pyridin-2-yl)pyrimidin-2-yl)amino)-N,6-dimethylnicotinamide] | 50 to 500
16 | CN1CC[C@@](O)(c2cc(-c3cccc(-c4ccnc(Nc5cnc6c(c5)CCCO6)n4)n3)no2)C1=O [Example 474, (R)-3-(3-(6-(2-((3,4-Dihydro-2H-pyrano[2,3-b]pyridin-6-yl)amino)pyrimidin-4-yl)pyridin-2-yl)isoxazol-5-yl)-3-hydroxy-1-methylpyrrolidin-2-one] | < 50
17 | COCc1cc(Nc2nccc(-c3cccc(-c4cc([C@]5(O)CCN(C)C5=O)on4)n3)n2)nn1C [Example 475, (R)-3-Hydroxy-3-(3-(6-(2-((5-(methoxymethyl)-1-methyl-1H-pyrazol-3-yl)amino)pyrimidin-4-yl)pyridin-2-yl)isoxazol-5-yl)-1-methylpyrrolidin-2-one] | < 50
18 | CN1CC[C@@](O)(c2cc(-c3cccc(-c4ccnc(NC5CCN(S(C)(=O)=O)CC5)n4)n3)no2)C1=O [Example 476, (R)-3-Hydroxy-1-methyl-3-(3-(6-(2-((1-(methylsulfonyl)piperidin-4-yl)amino)pyrimidin-4-yl)pyridin-2-yl)isoxazol-5-yl)pyrrolidin-2-one] | 50 to 500
